The values below are quoted from earlier work in US11872314B2, “Pharmaceutical compositions” (Shin Nippon Biomedical Laboratories, Ltd., priority 2016, dated 2024).

The conditions of the series: at 25° C.

Take `COc1ccc2c(c1)c(CC(=O)O)c(C)n2C(=O)c1ccc(Cl)cc1` [Indomethacin, indomethacin]: the Water solbility is 0.937 µg/mL.
